Assays:
RyR2 [1] = target: T1, RyR2 (Mus musculus, UniProt E9Q401); test: ER Ca2+; type: cell-based
RyR2 [2] = target: T1, RyR2; test: [3H]ryanodine binding to microsomes; type: biochemical

T1 sequence (E9Q401 whole entry): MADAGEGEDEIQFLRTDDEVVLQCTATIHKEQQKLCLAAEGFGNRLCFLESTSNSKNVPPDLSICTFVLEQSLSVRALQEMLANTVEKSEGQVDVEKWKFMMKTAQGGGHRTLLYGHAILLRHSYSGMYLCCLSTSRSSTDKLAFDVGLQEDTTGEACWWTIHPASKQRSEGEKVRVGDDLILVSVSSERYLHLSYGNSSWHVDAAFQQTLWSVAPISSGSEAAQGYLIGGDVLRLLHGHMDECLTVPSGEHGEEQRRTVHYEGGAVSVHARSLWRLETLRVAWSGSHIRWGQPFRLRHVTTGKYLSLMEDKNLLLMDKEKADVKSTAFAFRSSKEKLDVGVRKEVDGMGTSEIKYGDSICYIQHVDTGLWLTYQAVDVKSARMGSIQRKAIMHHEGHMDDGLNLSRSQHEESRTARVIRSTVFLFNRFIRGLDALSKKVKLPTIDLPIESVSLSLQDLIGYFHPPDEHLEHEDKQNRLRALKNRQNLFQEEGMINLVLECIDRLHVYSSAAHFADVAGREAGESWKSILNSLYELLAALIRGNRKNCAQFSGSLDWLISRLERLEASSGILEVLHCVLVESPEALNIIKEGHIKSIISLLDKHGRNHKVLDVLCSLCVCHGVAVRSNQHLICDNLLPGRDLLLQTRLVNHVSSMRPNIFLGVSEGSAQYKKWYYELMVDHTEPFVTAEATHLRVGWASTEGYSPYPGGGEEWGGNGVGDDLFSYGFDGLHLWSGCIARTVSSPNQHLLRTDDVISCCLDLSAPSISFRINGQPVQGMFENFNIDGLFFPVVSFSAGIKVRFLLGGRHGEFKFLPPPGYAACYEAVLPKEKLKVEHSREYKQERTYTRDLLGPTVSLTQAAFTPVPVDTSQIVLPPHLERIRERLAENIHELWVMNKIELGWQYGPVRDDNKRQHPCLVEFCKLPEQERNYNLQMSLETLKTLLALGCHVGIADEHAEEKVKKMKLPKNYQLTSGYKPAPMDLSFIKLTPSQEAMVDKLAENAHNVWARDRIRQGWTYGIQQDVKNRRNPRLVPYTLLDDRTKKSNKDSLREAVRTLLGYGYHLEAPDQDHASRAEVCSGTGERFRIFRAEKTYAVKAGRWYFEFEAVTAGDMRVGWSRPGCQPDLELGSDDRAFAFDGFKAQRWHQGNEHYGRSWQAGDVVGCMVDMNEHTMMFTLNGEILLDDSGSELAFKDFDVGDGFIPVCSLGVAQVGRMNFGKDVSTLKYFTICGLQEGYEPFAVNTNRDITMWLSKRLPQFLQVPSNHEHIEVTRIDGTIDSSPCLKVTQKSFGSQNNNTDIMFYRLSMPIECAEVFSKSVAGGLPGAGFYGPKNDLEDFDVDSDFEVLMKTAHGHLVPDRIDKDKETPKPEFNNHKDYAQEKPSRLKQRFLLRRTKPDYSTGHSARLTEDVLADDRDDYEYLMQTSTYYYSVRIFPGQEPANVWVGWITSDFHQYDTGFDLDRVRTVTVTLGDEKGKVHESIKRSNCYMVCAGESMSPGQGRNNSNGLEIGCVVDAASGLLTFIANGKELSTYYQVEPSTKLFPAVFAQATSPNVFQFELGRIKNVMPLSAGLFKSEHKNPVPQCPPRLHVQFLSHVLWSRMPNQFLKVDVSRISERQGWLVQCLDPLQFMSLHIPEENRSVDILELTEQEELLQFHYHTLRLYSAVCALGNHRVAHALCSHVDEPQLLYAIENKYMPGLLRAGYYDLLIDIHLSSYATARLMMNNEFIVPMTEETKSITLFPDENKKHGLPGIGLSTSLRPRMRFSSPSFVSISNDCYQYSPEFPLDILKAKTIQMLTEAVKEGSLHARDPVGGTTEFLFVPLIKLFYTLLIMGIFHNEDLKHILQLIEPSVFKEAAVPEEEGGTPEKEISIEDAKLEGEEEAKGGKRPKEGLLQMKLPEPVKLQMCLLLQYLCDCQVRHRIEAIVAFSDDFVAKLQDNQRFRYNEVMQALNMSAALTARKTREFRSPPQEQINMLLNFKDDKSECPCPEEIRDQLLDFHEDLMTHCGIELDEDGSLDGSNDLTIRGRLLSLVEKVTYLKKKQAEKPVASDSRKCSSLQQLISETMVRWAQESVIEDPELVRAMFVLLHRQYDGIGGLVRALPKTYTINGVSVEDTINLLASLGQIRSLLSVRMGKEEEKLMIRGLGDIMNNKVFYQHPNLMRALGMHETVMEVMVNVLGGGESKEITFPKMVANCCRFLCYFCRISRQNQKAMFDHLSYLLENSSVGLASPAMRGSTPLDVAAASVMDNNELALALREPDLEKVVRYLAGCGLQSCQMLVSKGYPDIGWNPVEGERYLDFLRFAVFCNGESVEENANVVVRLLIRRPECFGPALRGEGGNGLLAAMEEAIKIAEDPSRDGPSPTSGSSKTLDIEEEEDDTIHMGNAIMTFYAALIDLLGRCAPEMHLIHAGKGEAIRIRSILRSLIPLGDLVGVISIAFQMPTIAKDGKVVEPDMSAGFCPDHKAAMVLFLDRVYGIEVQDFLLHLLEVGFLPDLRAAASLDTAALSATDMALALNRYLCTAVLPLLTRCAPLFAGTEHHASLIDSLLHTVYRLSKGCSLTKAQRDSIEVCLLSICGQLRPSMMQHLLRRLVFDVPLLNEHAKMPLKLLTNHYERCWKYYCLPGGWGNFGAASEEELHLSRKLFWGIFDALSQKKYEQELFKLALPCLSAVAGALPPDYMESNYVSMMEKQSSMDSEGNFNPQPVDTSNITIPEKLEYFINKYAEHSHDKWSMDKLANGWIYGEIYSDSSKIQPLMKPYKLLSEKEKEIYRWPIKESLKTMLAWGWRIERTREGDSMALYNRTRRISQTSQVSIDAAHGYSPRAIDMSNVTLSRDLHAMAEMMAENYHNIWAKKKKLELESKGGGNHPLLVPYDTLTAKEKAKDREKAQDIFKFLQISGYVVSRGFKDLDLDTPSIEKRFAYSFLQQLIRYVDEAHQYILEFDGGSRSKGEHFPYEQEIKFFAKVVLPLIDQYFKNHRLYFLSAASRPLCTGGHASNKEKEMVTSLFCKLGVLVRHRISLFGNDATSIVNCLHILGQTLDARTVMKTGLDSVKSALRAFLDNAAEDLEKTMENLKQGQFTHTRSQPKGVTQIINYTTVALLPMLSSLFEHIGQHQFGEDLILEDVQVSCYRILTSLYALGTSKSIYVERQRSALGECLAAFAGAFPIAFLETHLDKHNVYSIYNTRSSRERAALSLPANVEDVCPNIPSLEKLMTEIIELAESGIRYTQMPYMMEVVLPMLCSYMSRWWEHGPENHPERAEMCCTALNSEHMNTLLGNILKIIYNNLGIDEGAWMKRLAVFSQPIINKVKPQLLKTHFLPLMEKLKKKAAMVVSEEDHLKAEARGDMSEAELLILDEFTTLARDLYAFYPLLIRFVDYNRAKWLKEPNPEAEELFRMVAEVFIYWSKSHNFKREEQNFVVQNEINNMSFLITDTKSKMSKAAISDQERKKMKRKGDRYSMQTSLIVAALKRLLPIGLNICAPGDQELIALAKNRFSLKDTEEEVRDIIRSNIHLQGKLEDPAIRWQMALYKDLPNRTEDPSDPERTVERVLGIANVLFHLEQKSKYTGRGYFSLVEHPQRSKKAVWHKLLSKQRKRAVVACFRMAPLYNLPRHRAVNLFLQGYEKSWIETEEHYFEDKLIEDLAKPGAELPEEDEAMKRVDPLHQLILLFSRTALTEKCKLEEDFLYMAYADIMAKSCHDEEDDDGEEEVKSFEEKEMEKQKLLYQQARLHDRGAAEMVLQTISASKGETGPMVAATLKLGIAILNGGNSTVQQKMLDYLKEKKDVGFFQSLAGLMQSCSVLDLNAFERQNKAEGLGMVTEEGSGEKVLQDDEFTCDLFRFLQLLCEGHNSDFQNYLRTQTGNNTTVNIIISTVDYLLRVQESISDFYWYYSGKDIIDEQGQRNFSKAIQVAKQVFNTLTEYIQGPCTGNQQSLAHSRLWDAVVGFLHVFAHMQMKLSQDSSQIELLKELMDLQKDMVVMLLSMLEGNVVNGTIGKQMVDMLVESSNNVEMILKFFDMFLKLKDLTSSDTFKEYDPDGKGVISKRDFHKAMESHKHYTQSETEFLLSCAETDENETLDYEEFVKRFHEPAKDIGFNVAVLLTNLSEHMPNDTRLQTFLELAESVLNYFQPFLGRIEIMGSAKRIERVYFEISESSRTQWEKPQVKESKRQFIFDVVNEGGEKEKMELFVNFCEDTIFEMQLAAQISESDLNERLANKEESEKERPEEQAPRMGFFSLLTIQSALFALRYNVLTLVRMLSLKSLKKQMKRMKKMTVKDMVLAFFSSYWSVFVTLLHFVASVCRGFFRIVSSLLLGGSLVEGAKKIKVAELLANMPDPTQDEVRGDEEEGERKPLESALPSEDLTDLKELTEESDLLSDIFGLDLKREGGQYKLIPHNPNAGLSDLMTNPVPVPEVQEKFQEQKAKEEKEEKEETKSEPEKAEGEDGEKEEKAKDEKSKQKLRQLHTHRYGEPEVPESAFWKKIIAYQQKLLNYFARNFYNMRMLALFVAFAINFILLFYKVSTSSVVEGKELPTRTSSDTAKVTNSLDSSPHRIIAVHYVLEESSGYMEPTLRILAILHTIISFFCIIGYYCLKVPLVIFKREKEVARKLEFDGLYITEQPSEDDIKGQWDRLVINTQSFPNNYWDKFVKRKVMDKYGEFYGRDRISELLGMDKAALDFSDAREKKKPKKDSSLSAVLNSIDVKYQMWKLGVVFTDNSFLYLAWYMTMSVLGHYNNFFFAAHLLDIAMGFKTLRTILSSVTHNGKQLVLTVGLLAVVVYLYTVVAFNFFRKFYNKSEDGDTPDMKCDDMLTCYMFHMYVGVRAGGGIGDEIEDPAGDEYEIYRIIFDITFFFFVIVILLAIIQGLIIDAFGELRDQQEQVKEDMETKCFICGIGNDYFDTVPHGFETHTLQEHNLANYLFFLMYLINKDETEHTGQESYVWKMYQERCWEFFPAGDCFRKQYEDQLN

- EC50 (RyR2 [1]): 300 nM
- IC50 (RyR2 [2]): 130 nM
SMILES: Cc1cc(O)cc(C)c1Cl [#1, chloroxylenol]

Reference: publication doi:10.1101/2023.08.21.553510v1 (biorxiv, 2023)
